Assay results as given in ChEMBL document CHEMBL1201862, “PubChem BioAssay data set” (2004).
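Cultured in 96-well plates, cells were exposed to test compound for 48 hours across five concentrations. The concentration for 50% growth inhibition is given as GI50.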 The source made the active and inactive calls. Rule as the data show it: active = GI50 up to about 1.1 µM and inactive = higher.

Columns and labels:
Test in all cases: DTP human tumour cell line panel, 48 h
786-0 = system: 786-0
A498 = system: A498
A549 = system: A549
ACHN = system: ACHN
CAKI-1 = system: CAKI-1
CCRF-CEM = system: CCRF-CEM
COLO 205 = system: COLO 205
DLD-1 = system: DLD-1
DMS-114 = system: DMS-114
DMS-273 = system: DMS-273
EKVX = system: EKVX
HCC 2998 = system: HCC 2998
HCT-116 = system: HCT-116
HCT-15 = system: HCT-15
HL-60 = system: HL-60
HOP-18 = system: HOP-18
HOP-62 = system: HOP-62
HOP-92 = system: HOP-92
HT-29 = system: HT-29
IGROV-1 = system: IGROV-1
K562 = system: K562
KM-20L2 = system: KM-20L2
KM12 = system: KM12
LOX IMVI = system: LOX IMVI
LXFL 529 = system: LXFL 529
M14 = system: M14
M19-MEL = system: M19-MEL
MOLT-4 = system: MOLT-4
Malme-3M = system: Malme-3M
NCI-H226 = system: NCI-H226
NCI-H23 = system: NCI-H23
NCI-H460 = system: NCI-H460
NCI-H522 = system: NCI-H522
OVCAR-3 = system: OVCAR-3
OVCAR-4 = system: OVCAR-4
OVCAR-5 = system: OVCAR-5
OVCAR-8 = system: OVCAR-8
RPMI-8226 = system: RPMI-8226
RXF 393 = system: RXF 393
SF-268 = system: SF-268
SF-295 = system: SF-295
SF-539 = system: SF-539
SK-MEL-28 = system: SK-MEL-28
SK-MEL-2 = system: SK-MEL-2
SK-MEL-5 = system: SK-MEL-5
SK-OV-3 = system: SK-OV-3
SN12C = system: SN12C
SNB-19 = system: SNB-19
SNB-75 = system: SNB-75
SNB-78 = system: SNB-78
SR = system: SR
SW-620 = system: SW-620
TK-10 = system: TK-10
U-251 = system: U-251
UACC-257 = system: UACC-257
UACC-62 = system: UACC-62
UO-31 = system: UO-31
XF498 = system: XF498
RXF 631 = system: RXF 631
DU-145 = system: DU-145
Hs-578T = system: Hs-578T
MCF7 = system: MCF7
MDA-N = system: MDA-N
NCI/ADR-RES = system: NCI/ADR-RES
PC-3 = system: PC-3
T47D = system: T47D

`O=S(=O)(O)c1ccc([Se][Se]c2ccc(S(=O)(=O)O)cc2)cc1` was tested, and the GI50 (786-0) was > 100 µM (inactive), the GI50 (A498) was > 100 µM (inactive) and the GI50 (A549) was > 100 µM (inactive). The GI50 (ACHN) was > 100 µM (inactive), the GI50 (CAKI-1) was > 100 µM (inactive) and the GI50 (CCRF-CEM) was > 100 µM (inactive). For the same compound, the GI50 (COLO 205) was > 100 µM (inactive), the GI50 (DLD-1) was > 100 µM (inactive) and the GI50 (DMS-114) was > 100 µM (inactive). The GI50 (DMS-273) was 76.7 µM (inactive), the GI50 (EKVX) was > 100 µM (inactive) and the GI50 (HCC 2998) was > 100 µM (inactive). For the same compound, the GI50 (HCT-116) was > 100 µM (inactive), the GI50 (HCT-15) was over 100 µM and the GI50 (HL-60) was > 100 µM (inactive). The GI50 (HOP-18) was > 100 µM (inactive), the GI50 (HOP-62) was > 100 µM (inactive) and the GI50 (HOP-92) was > 100 µM (inactive). The GI50 (HT-29) was > 100 µM (inactive), the GI50 (IGROV-1) was > 100 µM (inactive) and the GI50 (K562) was > 100 µM (inactive). For the same compound, the GI50 (KM-20L2) was > 100 µM (inactive), the GI50 (KM12) was > 100 µM (inactive) and the GI50 (LOX IMVI) was > 100 µM (inactive). For the same compound, the GI50 (LXFL 529) was 51.2 µM (inactive), the GI50 (M14) was > 100 µM (inactive) and the GI50 (M19-MEL) was > 100 µM (inactive). For the same compound, the GI50 (MOLT-4) was > 100 µM (inactive), the GI50 (Malme-3M) was > 100 µM (inactive) and the GI50 (NCI-H226) was > 100 µM (inactive). For the same compound, the GI50 (NCI-H23) was > 100 µM (inactive), the GI50 (NCI-H460) was > 100 µM (inactive) and the GI50 (NCI-H522) was 60.5 µM (inactive). For the same compound, the GI50 (OVCAR-3) was > 100 µM (inactive), the GI50 (OVCAR-4) was > 100 µM (inactive) and the GI50 (OVCAR-5) was > 100 µM (inactive). The GI50 (OVCAR-8) was > 100 µM (inactive), the GI50 (RPMI-8226) was 72.4 µM (inactive) and the GI50 (RXF 393) was > 100 µM (inactive). For the same compound, the GI50 (SF-268) was > 100 µM (inactive), the GI50 (SF-295) was > 100 µM (inactive) and the GI50 (SF-539) was > 100 µM (inactive). For the same compound, the GI50 (SK-MEL-28) was > 100 µM (inactive), the GI50 (SK-MEL-2) was > 100 µM (inactive) and the GI50 (SK-MEL-5) was > 100 µM (inactive). The GI50 (SK-OV-3) was > 100 µM (inactive), the GI50 (SN12C) was > 100 µM (inactive) and the GI50 (SNB-19) was > 100 µM (inactive). The GI50 (SNB-75) was > 100 µM (inactive), the GI50 (SNB-78) was > 100 µM (inactive) and the GI50 (SR) was 27.9 µM (inactive). The GI50 (SW-620) was > 100 µM (inactive), the GI50 (TK-10) was > 100 µM (inactive) and the GI50 (U-251) was > 100 µM (inactive). For the same compound, the GI50 (UACC-257) was > 100 µM (inactive), the GI50 (UACC-62) was > 100 µM (inactive) and the GI50 (UO-31) was > 100 µM (inactive). For the same compound, the GI50 (XF498) was > 100 µM (inactive).

`COc1cc2c(cc1OC)C(N(C)C)C(c1ccccc1)=C2Cl` (stereo unspecified) was tested, and the GI50 (786-0) was 25.3 µM (inactive), the GI50 (A498) was 22.5 µM (inactive) and the GI50 (CCRF-CEM) was 60.5 µM (inactive). For the same compound, the GI50 (COLO 205) was 17.9 µM (inactive), the GI50 (DLD-1) was 15.1 µM (inactive) and the GI50 (DMS-273) was 16.4 µM (inactive). For the same compound, the GI50 (HCT-15) was 17.5 µM, the GI50 (HL-60) was 16.1 µM (inactive) and the GI50 (HOP-18) was 28.5 µM (inactive). The GI50 (HOP-62) was 36.4 µM (inactive), the GI50 (HOP-92) was 17.9 µM (inactive) and the GI50 (HT-29) was 19.9 µM (inactive). For the same compound, the GI50 (IGROV-1) was 21.8 µM (inactive), the GI50 (K562) was 27.9 µM (inactive) and the GI50 (KM-20L2) was 25 µM (inactive). The GI50 (KM12) was 23.2 µM (inactive), the GI50 (LOX IMVI) was 17.4 µM (inactive) and the GI50 (M14) was 19.8 µM (inactive). For the same compound, the GI50 (M19-MEL) was 18.5 µM (inactive), the GI50 (MOLT-4) was 12.5 µM (inactive) and the GI50 (NCI-H226) was 21.9 µM (inactive). For the same compound, the GI50 (NCI-H23) was 16.9 µM (inactive), the GI50 (NCI-H460) was 19 µM (inactive) and the GI50 (NCI-H522) was 10.1 µM (inactive). The GI50 (OVCAR-3) was 21.3 µM (inactive), the GI50 (OVCAR-4) was 27.4 µM (inactive) and the GI50 (OVCAR-5) was 34 µM (inactive). For the same compound, the GI50 (OVCAR-8) was 18.9 µM (inactive), the GI50 (RPMI-8226) was 18.2 µM (inactive) and the GI50 (RXF 393) was 15.5 µM (inactive). For the same compound, the GI50 (RXF 631) was 15.7 µM (inactive), the GI50 (SF-295) was 22.8 µM (inactive) and the GI50 (SF-539) was 20.5 µM (inactive). The GI50 (SK-MEL-28) was 18.7 µM (inactive), the GI50 (SK-MEL-2) was 18.7 µM (inactive) and the GI50 (SK-OV-3) was 22 µM (inactive). For the same compound, the GI50 (SN12C) was 18.7 µM (inactive), the GI50 (SNB-19) was 37.9 µM (inactive) and the GI50 (SNB-75) was 20 µM (inactive). For the same compound, the GI50 (SR) was 4.54 µM (inactive), the GI50 (SW-620) was 16.2 µM (inactive) and the GI50 (TK-10) was 37.5 µM (inactive). For the same compound, the GI50 (U-251) was 16.6 µM (inactive), the GI50 (UACC-257) was 18 µM (inactive) and the GI50 (UO-31) was 16.9 µM (inactive).

In the case of `Nc1ccccc1C(=O)CCC1C(=O)NC(=S)NC1=O`, the GI50 (786-0) is reported as > 100 µM (inactive), the GI50 (A498) is reported as > 100 µM (inactive) and the GI50 (A549) is reported as > 100 µM (inactive). For the same compound, the GI50 (ACHN) was > 100 µM (inactive), the GI50 (CAKI-1) was > 100 µM (inactive) and the GI50 (CCRF-CEM) was > 100 µM (inactive). For the same compound, the GI50 (COLO 205) was > 100 µM (inactive), the GI50 (DLD-1) was > 100 µM (inactive) and the GI50 (DMS-114) was > 100 µM (inactive). The GI50 (DMS-273) was > 100 µM (inactive), the GI50 (DU-145) was > 100 µM (inactive) and the GI50 (EKVX) was > 100 µM (inactive). The GI50 (HCC 2998) was > 100 µM (inactive), the GI50 (HCT-116) was > 100 µM (inactive) and the GI50 (HCT-15) was over 100 µM. The GI50 (HL-60) was > 100 µM (inactive), the GI50 (HOP-18) was > 100 µM (inactive) and the GI50 (HOP-62) was > 100 µM (inactive). The GI50 (HOP-92) was > 91.4 µM (inactive), the GI50 (HT-29) was > 100 µM (inactive) and the GI50 (Hs-578T) was > 100 µM (inactive). The GI50 (IGROV-1) was > 100 µM (inactive), the GI50 (K562) was > 100 µM (inactive) and the GI50 (KM-20L2) was > 100 µM (inactive). The GI50 (KM12) was > 100 µM (inactive), the GI50 (LOX IMVI) was > 100 µM (inactive) and the GI50 (LXFL 529) was > 100 µM (inactive). For the same compound, the GI50 (M14) was > 100 µM (inactive), the GI50 (M19-MEL) was > 100 µM (inactive) and the GI50 (MCF7) was > 100 µM (inactive). The GI50 (MDA-N) was > 100 µM (inactive), the GI50 (MOLT-4) was > 100 µM (inactive) and the GI50 (Malme-3M) was > 100 µM (inactive). The GI50 (NCI-H226) was > 100 µM (inactive), the GI50 (NCI-H23) was > 100 µM (inactive) and the GI50 (NCI-H460) was > 100 µM (inactive). The GI50 (NCI-H522) was > 100 µM (inactive), the GI50 (NCI/ADR-RES) was > 100 µM (inactive) and the GI50 (OVCAR-3) was > 100 µM (inactive). The GI50 (OVCAR-4) was > 100 µM (inactive), the GI50 (OVCAR-5) was > 100 µM (inactive) and the GI50 (OVCAR-8) was > 100 µM (inactive). For the same compound, the GI50 (PC-3) was > 100 µM (inactive), the GI50 (RPMI-8226) was > 100 µM (inactive) and the GI50 (RXF 393) was > 100 µM (inactive). For the same compound, the GI50 (RXF 631) was > 100 µM (inactive), the GI50 (SF-268) was > 100 µM (inactive) and the GI50 (SF-295) was > 100 µM (inactive). The GI50 (SF-539) was > 100 µM (inactive), the GI50 (SK-MEL-28) was > 100 µM (inactive) and the GI50 (SK-MEL-2) was > 100 µM (inactive). For the same compound, the GI50 (SK-MEL-5) was > 100 µM (inactive), the GI50 (SK-OV-3) was > 100 µM (inactive) and the GI50 (SNB-19) was > 100 µM (inactive). For the same compound, the GI50 (SNB-75) was 43.8 µM (inactive), the GI50 (SR) was > 100 µM (inactive) and the GI50 (SW-620) was > 100 µM (inactive). For the same compound, the GI50 (T47D) was > 100 µM (inactive), the GI50 (TK-10) was > 100 µM (inactive) and the GI50 (U-251) was > 100 µM (inactive). The GI50 (UACC-257) was > 100 µM (inactive), the GI50 (UACC-62) was > 100 µM (inactive) and the GI50 (UO-31) was > 100 µM (inactive).
